“Also recorded” adds a separate entry of the source. Marks after values point to notes of the source that are not given here.
What was measured:
[1] = test system: TgCRND8 mice; experiment: Accelerating rotarod sensorimotor function; format: in vivo, mouse; conditions: treated versus untreated TgCRND8 mice
Procedure: (§1) Behavioural tests: Morris Water Maze testing was performed as previously described. After non-spatial pre-training, mice underwent place discrimination training for 5 days with 4-trials per day, followed by a cued visible platform to rule out general motivational, learning deficits and motor problems, and a probe trial to evaluate memory. […] Open field test for motor activity was preformed as described previously. Duration of walking, pausing and grooming were analyzed as indices of spontaneous locomotor activity. Sensorimotor function was examined with an Economex™ accelerating rotarod (Columbus Instruments, Columbus, Ohio), as described elsewhere. The rod was set to accelerate at a rate of 0.2 r.p.m./s, from an initial, constant speed of 5 r.p.m. Latency to fall was recorded in four daily trials, conducted at 30 min intervals. All mice were trained for seven days before testing. The test day performance score for each animal was obtained by summing its latency to fall over the four trials

[2] = test system: TgCRND8 mice; experiment: Vascular amyloid burden; format: in vivo, mouse; conditions: compared to untreated and epi-inositol treated
Procedure: (§2) Cerebral amyloid burden. Brains were removed and one hemisphere was fixed in 4% paraformaldehyde and embedded in paraffin wax in the mid sagittal plane. To generate sets of systematic uniform random sections, 5 μm serial sections were collected across the entire hemisphere. Sets of sections at 50 μm intervals were used for analyses (10-14 sections/set). Plaques were identified after antigen retrieval with formic acid, and incubation with primary anti-Aβ antibody (Dako M-0872), followed by secondary antibody (Dako StreptABCcomplex/horseradish kit). End products were visualized with DAB and were counter-stained with luxol fast blue. Amyloid plaque burden was assessed with Leco IA-3001 image analysis software interfaced with Leica microscope and Hitachi KP-M1U CCD video camera. Openlab imaging software (Improvision, Lexington, Mass.) was then used to convert micrographs to binary images for plaque number and plaque area determinations. Vascular amyloid burden was defined as amyloid originating from or surrounding blood vessels and was analysed similarly.

[3] = test system: TgCRND8 mice; experiment: Survival census (Kaplan-Meier); format: in vivo, mouse; conditions: compared to untreated TgCRND8 mice
Procedure: Survival Census: The probability of survival was assessed by the Kaplan-Meier technique, computing the probability of survival at every occurrence of death, thus making it suitable for small sample sizes. For the analyses of survival, 35 mice were used for each treatment group. The Tarone-Ware test was used to assess effects of treatments.
Survival Census: The probability of survival was assessed by the Kaplan-Meier technique computing the probability of survival at every occurrence of death, thus making it suitable for small sample sizes. For the analyses of survival, 30 mice were used for each treatment group. The Tarone-Ware test was used to assess effects of treatments.

[4] = test system: LTP in mouse hippocampal slices; experiment: Long term potentiation in hippocampal slices with 7PA2 conditioned medium; format: cell-based; conditions: compound treated culture media from plain CHO cells
Procedure: Long Term Potentiation. […] Swiss Webster mice between the ages of P16 and P26 were anesthetized with isoflurane. […] The hippocampus from each hemisphere was isolated and 350 μm coronal sections were made. […] Once placed in the chamber, slices were continuously perfused by a closed loop containing 15 ml of ACSF to conserve the oligomeric Aβ. […] A bipolar stimulating electrode (World Precision Inst.) was placed in the Schaffer collaterals to deliver baseline stimuli and tetani. A borosilicate glass recording electrode (2-4 MΩ) containing ACSF was positioned approximately 75-200 μm from the stimulating electrode. […] Test stimuli were delivered at 0.05 Hz. To induce LTP, 4 tetani (100 Hz for 1 second) were delivered 5 minutes apart. Field potential responses were amplified 10× using an Axopatch 200B. The data was sampled at 10 kHz and filtered at 2 kHz. Traces were analyzed using pClamp 9.2. The slope of the field potential was estimated using approximately 10-60% of the total response.

[5] = target: T1, Aβ40 (Homo sapiens, UniProt P05067); experiment: Cerebral Aβ content: brain Aβ40 (ELISA kit); format: in vivo, mouse; conditions: TgCRND8 mice with pre-existing disease; 28 day treatment from 5 months of age
T1 construct: from tissue; host or cells: hemi-brain homogenate of TgCRND8 transgenic mice
Procedure: (§3) Plasma and Cerebral Aβ Content. Hemi-brain samples were homogenized in a buffered sucrose solution, followed by either 0.4% diethylamine/100 mM NaCl for soluble Aβ levels or cold formic acid for the isolation of total Aβ. After neutralization, the samples were diluted and analyzed for Aβ40 and Aβ42 using commercially available kits (BIOSOURCE International). Each hemisphere was analyzed in triplicate and the mean values±SEM reported. Western blot analyses were performed on all fractions using urea gels for Aβ species analyses. Aβ was detected using 6E10 (BIOSOURCE International) and Enhanced Chemiluminenscence (Amersham).
(§4) Cerebral Aβ Content. Hemi-brain samples were homogenized in a buffered sucrose solution, followed by either 0.4% diethylamine/100 mM NaCl for soluble Aβ levels or cold formic acid for the isolation of total Aβ [22]. After neutralization the samples were diluted and analyzed for Aβ40 and Aβ42 using commercially available kits (BIOSOURCE International). Each hemisphere was analyzed in triplicate with the mean±SEM reported. Plasma was diluted and run directly on the ELISA.

[6] = test system: TgCRND8 mice; experiment: Cerebral amyloid plaque burden (anti-Aβ immunostaining, image analysis); format: in vivo, mouse
Procedure: as §2

[7] = test system: TgCRND8 mice; experiment: Gliosis quantitation (GFAP astrocytes, CD68 microglia); format: in vivo, mouse
Procedure: Gliosis Quantitation. Five randomly selected, evenly spaced, sagittal sections were collected from paraformaldehyde-fixed and frozen hemispheres of treated and control mice. Sections were immunolabelled for astrocytes with anti-rat GFAP IgG2a (Dako; diluted 1:50) and for microglia with anti-rat CD68 IgG2b (Dako; 1:50). Digital images were captured using a Coolsnap digital camera (Photometrics, Tuscon, Ariz.) mounted to a Zeiss, Axioscope 2 Plus microscope. Images were analysed using Openlab 3.08 imaging software (Improvision, Lexington Mass.).

[8] = test system: TgTauP301L mice; experiment: Synaptophysin reactivity in TgTauP301L mice; format: in vivo, mouse; conditions: TgTauP301L mice after treatment
Procedure: Synaptophysin immunohistochemical staining was performed on 3 evenly spaced saggital sections of paraformaldehyde-fixed treated and control mice. Sections were immunolabelled for synaptophysin with anti-synaptophysin IgG (1:40; Roche, Laval, PQ). Digital images were captured and analyzed as described above. Within each section, three randomly chosen 100 μm^2 areas of the CA1 region of the hippocampus were counted for synaptophysin reactive cell bodies and boutons. The results are expressed as the mean of the number of reactive bodies and boutons per 100 μm^2 [29, 30].

[9] = test system: TgCRND8 mice; experiment: Morris Water Maze spatial reference memory test; format: in vivo, mouse
Procedure: as §1
Behavioural tests: Behavioural analyses were performed using the Morris Water Maze test (13, 14). After pre-spatial training, mice underwent place discrimination training for 5 days with 4 trials per day, followed by a cued visible platform to rule out general motivational, learning deficits and motor problems. […] Open field test for motor activity was performed as described previously. Duration of walking, pausing, rearing and grooming were analyzed as indices of spontaneous locomotor activity.

[10] = target: T2, Aβ42 (Homo sapiens, UniProt P05067); experiment: Cerebral Aβ content: brain Aβ42 (ELISA kit); format: in vivo, mouse; design: from tissue; host or cells: hemi-brain homogenate of TgCRND8 transgenic mice; conditions: TgCRND8 mice with pre-existing disease; 28 day treatment from 5 months of age
Procedure: as §3, §4
Target sequence in this assay (P05067 672-713 limits assumed): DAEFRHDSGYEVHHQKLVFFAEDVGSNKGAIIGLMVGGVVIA

[11] = target: T2, Aβ42; experiment: Plasma Aβ42 levels; format: in vivo, mouse; design: from tissue; host or cells: plasma of TgCRND8 transgenic mice; conditions: TgCRND8 mice following 28 days of therapy at five months of age
Procedure: as §3, §4
Target sequence in this assay (P05067 672-713): as the sequence (P05067 672-713 limits assumed) above

[12] = TgCRND8 mice, 4-month Prophylactic (oral from 6 weeks to 4 months of age)
[13] = TgCRND8 mice, 6-month Prophylactic (oral from 6 weeks to 6 months of age)
[14] = TgCRND8 mice, 28 day course at 5 months of age, vs untreated
[15] = TgCRND8 mice, oral treatment for 28 days (1 month) from 5 months of age, analysed at 6 months
[16] = six month old TgCRND8 mice, 28 days of oral treatment beginning at five months of age

T1 sequence (P05067 672-711): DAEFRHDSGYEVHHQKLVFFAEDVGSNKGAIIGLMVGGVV

O[C@H]1[C@H](O)[C@@H](O)[C@H](O)[C@@H](O)[C@@H]1O [scyllo-cyclohexanehexol, 1,3,5/2,4,6-(scyllo-)cyclohexanehexol]
Rotarod sensorimotor function [1]: no difference
total vascular Aβ load [2]: significantly decreased the total vascular load
Kaplan Meier cumulative survival [3]: increased survival
direct effect on LTP [4]: no direct effect on LTP
effect on brain Aβ40 levels [5]: reduced brain levels of Aβ40 and Aβ42
amyloid (plaque) burden, immunostaining ([6]; TgCRND8 mice at six months of age, hippocampus and cerebral cortex): significantly decreased amyloid burden and gliosis
plaque burden (percent area of the brain covered with plaques, plaque number) ([6]; TgCRND8 mice with pre-existing disease, one month treatment from 5 months of age): lower plaque burden
Mean Plaque Size [6, 12]: 103 ± 4* μm^2
Total Plaque Area [6, 12]: 63847 ± 2895 μm^2
Mean Plaque Size [6, 13]: 339 ± 10† μm^2
Total Plaque Area [6, 13]: 262379 ± 5373† μm^2
percent area of the brain covered by plaques reduction [6, 14]: 14±0.5%
plaque number reduction [6, 14]: 13±0.3%
plaque size reduction [6, 14]: 16±0.4%
Mean Plaque Size [6, 15]: 336 ± 6* μm^2
Total Plaque Area [6, 15]: 420027 ± 14986* μm^2
percent brain area covered with microgliosis ([7]; TgCRND8 mice): decreased the percent brain area covered with microgliosis
astrogliosis / gliosis, anti-GFAP immunostaining ([7]; TgCRND8 mice at six months of age): significantly decreased amyloid burden and gliosis
percent brain area covered in astrogliosis ([7]; TgCRND8 mice, 4- and 6-months of age): decreased the astrogliotic response to a greater extent at both ages
synaptophysin reactivity [8]: unchanged
effects on cognition and pathology ([9]; TgCRND8 mice, administered for 2 months, ending at 7 months of age): Sustained effects both on cognition and pathology were observed
Non-Tg littermate behaviour under treatment ([9]; mouse, in vivo): not affected
cognition compared to non-Tg mice ([9]; prophylactic treatment, four months of age): approached that of non-Tg mice
probe trial, % time in target quadrant ([9]; separate cohort of TgCRND8 mice, compared to non-Tg littermates, data not shown): not statistically different from non-Tg littermates
spatial reference memory performance compared to non-Tg littermates [9, 16]: indistinguishable from that of their non-Tg littermates
spatial reference memory performance compared to untreated TgCRND8 littermates [9, 16]: significantly better behavioural performance compared to untreated TgCRND8 mice; also recorded: significantly better than untreated TgCRND8 littermates
effect on brain Aβ42 levels [10]: reduced brain levels of Aβ40 and Aβ42
Plasma Aβ42 levels [11]: 990 ± 73 pg/mL

Reference: patent US20070197453A1, “Compositions and methods for treatment of disorders of protein aggregation” (priority 2006, published 2007)
